Measured values: US8669256B2, “Substituted thieno[2,3-b]pyrazine compounds as modulators of B-Raf kinase activity” (Merck Sharp & Dohme B.V., priority 2010, dated 2014)
Read-outs that look alike come from different tables or passages of the source.

Legend:
[1] = molecular target: T1, GST-tagged human recombinant active B-Raf (Δ1-415) (Homo sapiens, UniProt P15056); assay: B-Raf kinase activity, IMAP coupled assay (B-Raf/MEK1/ERK2, fluorescence polarization); type: biochemical
T1 construct: GST; purchased Upstate/Millipore
T1 sequence (P15056 416-766, stated change not applied): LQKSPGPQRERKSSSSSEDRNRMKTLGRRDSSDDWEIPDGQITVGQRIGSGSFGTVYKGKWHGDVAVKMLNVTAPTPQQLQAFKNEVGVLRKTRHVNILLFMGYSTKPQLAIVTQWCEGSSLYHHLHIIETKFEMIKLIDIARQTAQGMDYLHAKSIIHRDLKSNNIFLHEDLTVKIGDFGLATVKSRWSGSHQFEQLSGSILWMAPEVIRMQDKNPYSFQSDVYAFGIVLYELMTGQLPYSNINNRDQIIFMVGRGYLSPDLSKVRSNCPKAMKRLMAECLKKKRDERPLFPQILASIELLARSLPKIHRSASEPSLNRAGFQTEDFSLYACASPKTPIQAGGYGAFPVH
Text: (§1) In another assay the B-Raf kinase activity can be determined by using an IMAP assay (Immobilized Metal Assay for Phosphochemicals-based coupled assay). IMAP is a homogeneous fluorescence polarization (FP) assay based on affinity capture of phosphorylated peptide substrates. IMAP uses fluorescein-labeled peptide substrates that, upon phosphorylation by a protein kinase, bind to so called IMAP nanoparticles, which are derivatized with trivalent metal complexes. Such binding causes a change in the rate of the molecular motion of the peptide, and results in an increase in the FP value observed for the fluorescein label attached to the substrate peptide. In such an assay, B-Raf phosphorylates unactive MEK1. The phosphorylated MEK1 is capable of phosphorylating ERK2, which subsequently phosphorylates the fluorescein-labeled peptide substrate.
Determination of B-Raf Kinase Activity using an IMAP Assay
as §1, with “Inhibition of” for “In another assay the”, “was measured” for “can be determined by”, “Immobilized” for “IMAP assay (Immobilized”, “assay (IMAP).” for “assay).”, “this” for “such an”
Enzymes, substrate and ATP were diluted at all steps in Kinase Reaction buffer (10 mM Tris-HCl, 10 mM MgCl2, 0.01% Tween-20, 0.05% NaN3 pH 7.2, 1 mM DTT). The final volume at the kinase reaction step of the assay in the 384-well plate was 20 μl. The concentrations within brackets are final concentrations in the assay. B-Raf (GST-tagged human recombinant active B-Raf (Δ1-415), Upstate/Millipore; 0.2 U/ml) was pre-incubated with compounds or DMSO (1% final concentration) for 60 minutes at room temperature in the dark. Thereafter, MEK 1 (GST-tagged human recombinant unactive MEK1 (full-length); 64 ng/ml), ERK2 (GST-tagged human recombinant unactive ERK2 (full-length); 600 ng/ml), peptide substrate (Erktide, Molecular Devices; 50 nM) and ATP (50 μM) were added to the wells and the mix was incubated for another 60 minutes at 30° C. in the dark. Then, IMAP progressive binding buffer (75% 1× buffer A, 25% 1× buffer B, 1:900 Progressive Binding Reagent; Molecular Devices) was added followed by an incubation step of 60 minutes at room temperature in the dark. Finally, the FP signal was read on an Envision Multilabel reader (Perkin Elmer).

[2] = test system: phosphorylation of ERK1/2 in A375 cells containing mutant B-Raf (V600E); assay: Phospho-ERK FACE assay in A375 (B-Raf mutated) melanoma cell line; type: cell-based; conditions: Homo sapiens, A-375, A375 cells, 2 hours incubation, read-out: IC50, A375 melanoma phospho-ERK assay
Procedure: The B-Raf activity can also be determined in a B-Raf mutated melanoma cell line, such as the A375 cell line. Inhibition of phosphorylation of ERK1/2 can be measured using a Fast Activated Cell-based ELISA (FACE) from Active Motif (Carlsbad, U.S.A., CA). E.g. A375 cells, which are cells containing a mutant form of B-Raf (V600E) and thus contain high levels of phosphorylated ERK, can be incubated with Raf inhibitors. Then cells can be incubated with anti-phospho-ERK antibody and subsequently with horse radish peroxidase (HRP)-labeled secondary antibody. Finally, chemiluminescence reagents can be added, which react with HRP, to give a luminescence signal.
Determination of B-Raf Activity Using a A375 (B-Raf mutated) Melanoma Cell Line (Phospho-ERK FACE Assay)
Inhibition of phosphorylation of ERK1/2 was measured using a Fast Activated Cell-based ELISA (FACE) from Active Motif (Carlsbad, U.S.A., CA). Briefly, A375 cells, which are cells containing a mutant form of B-Raf (V600E) and thus contain high levels of phosphorylated ERK, were incubated for 2 hours with Raf inhibitors. Then, cells were fixed with paraformaldehyde, washed and following quenching and blocking, incubated with anti-phospho-ERK antibody, and as a control, on a separate plate, with ERK antibody. After washing and removal of the primary antibodies, the fixed cells were incubated with horse radish peroxidase (HRP)-labeled secondary antibody. Finally, chemiluminescence reagents were added, which react with HRP, to give a luminescence signal.
Detailed protocol: A375 cells were cultured in DMEM/F12 (Dulbecco's Modified Eagle Medium Nutrient Mixture F-12) (Invitrogen), supplemented with 10% fetal bovine serum (FBS) (Biowhittaker), 100 U/ml penicillin G and 100 μg/ml streptomycin (Gibco). For the phospho ERK assay, cells were seeded at a density of 15,000 cells/well in 100 μl culture medium in 96-well plates and incubated in a humidified atmosphere at 5% CO2 and 37° C. After 24 hours, cells were washed with DMEM/F12 supplemented with 0.1% FBS (assay medium 120 μl of assay medium was added and the plates were incubated overnight in a humidified atmosphere at 5% CO2 and 37° C. The next day, the assay medium was removed and compounds diluted in assay medium were added to the cells. Final DMSO concentration in the assay was 1%. After 2 hours incubation, cells were fixed by replacing the assay medium with 100 μl of 4% formaldehyde (Bio-Connect, Huissen, The Netherlands) in PBS. After 20 minutes of incubation at room temperature, cells were washed three times with 200 μl wash buffer (0.1% (vol/vol) Triton X-100 in PBS from the FACE kit) followed by an incubation of 20 minutes with 100 μl quenching buffer, containing 1% (vol/vol) hydrogen peroxide (Thermo Fisher Scientific) and 0.1% (vol/vol) sodium azide (Sigma-Aldrich) in phosphate-buffered saline. Cells were washed two times with wash buffer, incubated for 1 hour with 100 μl antibody blocking buffer from the kit and washed two times again. 40 μl of diluted antibody against phosphorylated ERK1/2 (1:500 from the FACE kit) was added and incubated overnight at 4° C. The phospho-ERK antibody has been raised against a synthetic phospho-peptide corresponding to residues Thr202 and Tyr204 of human ERK1 and Thr185 and Tyr187 of human ERK2. For the detection of total ERK, antibody against ERK1 and ERK2 (1:500 from the FACE kit) was added. The excessive primary antibody was washed out, and 100 μl diluted HRP-conjugated anti-rabbit IgG (1:2000 from the FACE kit) was added and incubated for 1 hour at room temperature. Secondary antibody was removed and cells were washed 3 times with wash buffer and twice with PBS. 50 μl per well of FACE chemiluminescent working solution was added. Chemiluminescence was measured on an Envision Multilabel reader.

[3] = bounds also given as pIC50 (>6, >7, >8), 60 min pre-incubation with compound, ATP 50 μM, read-out: IC50, B-Raf IMAP assay

SMILES	IC50 [1, 3] [nM]	also measured
Cc1ccc(NC(=O)c2cccc(C(C)(C)C#N)c2)cc1NC(=O)c1sc2nccnc2c1N [Example 1, 7-amino-N-(5-(3-(2-cyanopropan-2-yl)benzamido)-2-methylphenyl)thieno[2,3-b]pyrazine-6-carboxamide]	< 10	IC50 ([2]; class given as below 100 nM (pIC50>7)): < 100 nM
Cc1ccc(NC(=O)c2cccc(C(C)(C)C#N)c2)cc1NC(=O)c1cc2nc(Cl)cnc2s1 [Example 12, 2-chloro-N-(5-(3-(2-cyanopropan-2-yl)benzamido)-2-methylphenyl)thieno[2,3-b]pyrazine-6-carboxamide]	< 100	–
Cc1ccc(NC(=O)c2cccc(C(C)(C)C#N)c2)cc1NC(=O)c1cc2nc(-c3cncnc3)cnc2s1 [Example 22, N-(5-(3-(2-cyanopropan-2-yl)benzamido)-2-methylphenyl)-2-(pyrimidin-5-yl)thieno[2,3-b]pyrazine-6-carboxamide]	< 10	–
Cc1ccc(NC(=O)c2cccc(C(C)(C)C#N)c2)cc1NC(=O)c1cc2nc(-c3cnc(N(C)C)nc3)cnc2s1 [Example 23, N-(5-(3-(2-cyanopropan-2-yl)benzamido)-2-methylphenyl)-2-(2-(dimethylamino)pyrimidin-5-yl)thieno[2,3-b]pyrazine-6-carboxamide]	< 100	–
Cc1ccc(NC(=O)c2ccnc(N(C)C)c2)cc1NC(=O)c1cc2nccnc2s1 [Example 25, N-(5-(2-(dimethylamino)isonicotinamido)-2-methylphenyl)thieno[2,3-b]pyrazine-6-carboxamide]	< 100	–
Cc1ccc(NC(=O)c2ccc(CN3CCN(C)CC3)c(C(F)(F)F)c2)cc1NC(=O)c1cc2nccnc2s1 [Example 33, N-(2-methyl-5-(4-((4-methylpiperazin-1-yl)methyl)-3-(trifluoromethyl)benzamido)phenyl)thieno[2,3-b]pyrazine-6-carboxamide]	< 100	–
Cc1ccc(NC(=O)c2cccc(-n3cccn3)c2)cc1NC(=O)c1cc2nccnc2s1 [Example 34, N-(5-(3-(1H-pyrazol-1-yl)benzamido)-2-methylphenyl)thieno[2,3-b]pyrazine-6-carboxamide]	< 100	–
Cc1ccc(NC(=O)c2cccc(C(C)(C)C#N)c2)cc1NCc1cc2nccnc2s1 [Example 47, 3-(2-cyanopropan-2-yl)-N-(4-methyl-3-(thieno[2,3-b]pyrazin-6-ylmethylamino)phenyl)benzamide]	< 100	–
Cc1ccc(C(=O)Nc2cccc(C(F)(F)F)c2)cc1NC(=O)c1cc2nccnc2s1 [Example 48, N-(2-methyl-5-(3-(trifluoromethyl)phenylcarbamoyl)phenyl)-thieno[2,3-b]pyrazine-6-carboxamide]	< 100	–
CC(C)(C#N)c1cccc(C(=O)Nc2ccc(C#N)c(NC(=O)c3cc4nccnc4s3)c2)c1 [Example 52, N-(2-cyano-5-(3-(2-cyanopropan-2-yl)benzamido)phenyl)thieno[2,3-b]pyrazine-6-carboxamide]	< 100	–
Cc1ccc(NC(=O)c2cccc(C(C)(C)C#N)c2)cc1/N=C(\C#N)c1cc2nccnc2s1 [Example 56, (E)-N-(5-(3-(2-cyanopropan-2-yl)benzamido)-2-methylphenyl)thieno[2,3-b]pyrazine-6-carbimidoyl cyanide]	–	IC50 [1]: < 100 nM
Cc1ccc(NC(=O)c2cccc(-c3ccsc3)c2)cc1NC(=O)c1cc2nccnc2s1 [Example 57, N-(2-methyl-5-(3-(thiophen-3-yl)benzamido)phenyl)thieno[2,3-b]pyrazine-6-carboxamide]	< 100	–
CNc1cnc2cc(C(=O)Nc3cc(NC(=O)c4cccc(C(C)(C)C#N)c4)ccc3C)sc2n1 [Example 59, N-(5-(3-(2-cyanopropan-2-yl)benzamido)-2-methylphenyl)-3-(methylamino)thieno[2,3-b]pyrazine-6-carboxamide]	–	IC50 ([2]; between 1 μM and 100 nM (6<pIC50<7)): 100 to 1000 nM

The next lines start with results.

IC50 [1, 3] [nM]	SMILES	also measured
< 100	Cc1ccc(NC(=O)c2cccc(C(C)(C)C#N)c2)cc1NC(=O)c1cc2[nH]c(=O)cnc2s1 [Example 58, N-(5-(3-(2-cyanopropan-2-yl)benzamido)-2-methylphenyl)-2-oxo-1,2-dihydrothieno[2,3-b]pyrazine-6-carboxamide]	–
< 10	Cc1ccc(NC(=O)c2cccc(C(C)(C)C#N)c2)cc1NC(=O)c1cc2ncc(N(C)C)nc2s1 [Example 60, N-(5-(3-(2-cyanopropan-2-yl)benzamido)-2-methylphenyl)-3-(dimethylamino)thieno[2,3-b]pyrazine-6-carboxamide]	–
< 100	CCOc1cnc2cc(C(=O)Nc3cc(NC(=O)c4cccc(C(C)(C)C#N)c4)ccc3C)sc2n1 [Example 71, N-(5-(3-(2-cyanopropan-2-yl)benzamido)-2-methylphenyl)-3-ethoxythieno[2,3-b]pyrazine-6-carboxamide]	–
< 100	Cc1ccc(C(=O)Nc2cccc(C(F)(F)F)c2)cc1NC(=O)c1sc2nccnc2c1N [Example 74, 7-amino-N-(2-methyl-5-(3-(trifluoromethyl)phenylcarbamoyl)phenyl)thieno[2,3-b]pyrazine-6-carboxamide]	–
< 100	CCOc1cnc2sc(C(=O)Nc3cc(NC(=O)c4cccc(C(C)(C)C#N)c4)ccc3C)cc2n1 [Example 76, N-(5-(3-(2-cyanopropan-2-yl)benzamido)-2-methylphenyl)-2-ethoxythieno[2,3-b]pyrazine-6-carboxamide]	–
